Consider ten molecules from the SangsterLogP compilation.

Each structure is given as a SMILES string.

A short description of this data set: method code SF-AS, from DOI: 10.1021/jm00244a011, PMID: 808606.
`O=C(O)CCCCN1C(=O)C=CC1=O` registered a logP of 0.6. Next, `O=C(O)CCN1C(=O)C=CC1=O`: 0.04. Next, `O=C(O)CCCCCCCN1C(=O)C=CC1=O`: 1.99; `CCOC(=O)CN1C(=O)C=CC1=O`: 0.49. Molecule `O=C(O)CCCN1C(=O)C=CC1=O` returned a logP of 0.4. `CCOC(=O)CCCCCN1C(=O)C=CC1=O` had a lipophilicity (logP) of 1.5. Molecule `CCOC(=O)CCN1C(=O)C=CC1=O` yielded a lipophilicity (logP) of 0.41.

As to `O=C(O)CN1C(=O)C=CC1=O`, the logP was -0.14. `O=C(O)CCCCCN1C(=O)C=CC1=O` yielded a logP of 1.15. `CCOC(=O)CCCN1C(=O)C=CC1=O`: the log partition coefficient (logP) was found to be 0.67.
